Reference: publication PMC8362126, “Proteolysis Targeting Chimera (PROTAC) for Macrophage Migration Inhibitory Factor (MIF) Has Anti‐Proliferative Activity in Lung Cancer Cells” (Angewandte Chemie (International Ed. in English), 2021)

Columns and labels:
MIF [1] = target: T1, MIF (Homo sapiens, UniProt P14174); test: MIF degradation in A549 cells, cell lysate-based ELISA; parameters: endogenous in cells; host or cells: A549 (ATCC CCL-185); conditions: A549 cells, 12 h, vs DMSO, mean±SD n=3
T1 sequence (P14174 2-115 limits assumed): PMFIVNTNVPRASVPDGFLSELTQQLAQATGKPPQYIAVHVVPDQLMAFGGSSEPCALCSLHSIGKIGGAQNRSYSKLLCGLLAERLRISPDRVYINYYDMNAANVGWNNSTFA
Protocol: In addition, A549 cells have been successfully used for assessing activity of cereblon ligand‐based PROTACs previously.[42] Therefore, A549 is a suitable cell line for evaluating the effect of our putative MIF‐directed PROTACs MD1 to MD12 on MIF protein levels. The reduction in MIF levels were monitored in A549 cells that were treated with two different PROTAC concentrations (20 and 2 μM) for 12 h in order to estimate the dose dependency, which is important for PROTACs because of the Hook effect.[35] The MIF levels in cell lysates were analyzed using an enzyme‐linked immunosorbent assay (ELISA).
S3. ELISA screening of MIF protein level on MIF-directed PROTACs
Cell culture. Human A549 lung cancer cells (ATCCCCL-185) or HEK293 kidney […]
containing 10% (v/v) fetal bovine serum (FBS), 100 U/mL penicillin/streptomycin […]
ELISA. 7×10^5 A549 cells per well were plated in 6-well plates. The next day, cells were treated with a solution of compounds or the vehicle for 12 h. Subsequently, the culture medium was removed and cells were washed twice with cold PBS and collected after trypsin (0.5 mL) degestion. Cells were then lyzed in lysis buffer (150 mM NaCl, 50 mM Hepes pH 7.5, 5 mM EDTA, 0.1% (w/v) NP40) containing protease inhibitor cocktail (Roche, #11836153001) and resuspended vigourously. The supernatant was collected after spinning down at 16 000g at 4 °C for 30 min. The total protein concentration was determined with PierceTM BCA protein assay kit ( ThermoFisher , #23225). The protein concentration was normalized between samples. The relative MIF levels from 1µg total protein were determined by ELISA with the human MIF DuoSet ELISA kit according to the instructions of the manufacturer (R&D systems, #DY289).
Figure S1. Screening of compounds for MIF degradation activity by cell lysate -based ELISA.
A549 cells were treated with compounds at (A) 20 or (B) 2 µM for 12 h. Data was normalized […]
(1 picture or pasted object on this page, not shown here)

MIF [2] = target: T1, MIF; test: MIF catalyzed 4-HPP tautomerization assay; type: biochemical; conditions: for IC50: 4-HPP conversion assay; for Ki: MIF catalyzed 4-HPP tautomerization, n=3
Protocol: S2. MIF Tautomerase activity IC50 study
The protocol for measuring inhibition of MIF tautomerase enzyme activity and enzyme kinetics was described previously.[8] Briefly, 180 µL of a 500 nM MIF solution in boric acid buffer (435 mM, pH 6.2) was mixed with 10 µL of a 20 mM EDTA solution in demiwater and 10 µL of a solution of the desired compound dissolved in DMSO or blanc DMSO. This mixture was pre-incubated at room temperature for 10 min. Next, 50 µL of this mixture was mixed with 50 µL of a 1 mM 4-HPP solution in ammonium acetate buffer (50 mM, pH 6.0). Subsequently, MIF tautomerase activity was monitored by measuring the increase of UV absorbance at 306 nm over time. MIF tautomerase activity in the presence a blank DMSO dilution was set to 100% enzyme activity. Non-catalyzed conversion of the substrate in absence of MIF was set to 0%.
Data from the first three minutes were used to calculate the initial velocities. All experiments were repeated three times and calculations were performed with the program GraphPad Prism.
Table S1. 4-HPP conversion assay results of MIF PROTACs
(also on this page, place not known: p rotocol previously. subs trate log [MD-1] (10^-6 M) Activity of MIF tautomerase(%) -2 -1 0 1 2 0 50 100 log [MD-2] (10^-6 M) Activity of MIF tautomerase(%) -2 -1 0 1 2 0 50 100)

| SMILES | Dmax at 20 µM (MIF [1]; A549, 12 h) | degradation [%] 2 μM (MIF [1]) | IC50 (MIF [2]) | Ki (MIF [2]) | degradation (%) 20 µM (MIF [1]) | Dmax at 20 µM (MIF [1]) |
| --- | --- | --- | --- | --- | --- | --- |
| O=C1CCC(N2C(=O)c3cccc(NCc4cn(CC(=O)Nc5ccc(-c6cc7ccc(O)cc7oc6=O)cc5)nn4)c3C2=O)C(=O)N1 (centres unmarked) [MD1] | 16 ± 7% | n.s. | 262 ± 35 nM | 175 ± 23 nM |  |  |
| O=C1CCC(N2C(=O)c3cccc(NC(=O)CCc4cn(CC(=O)Nc5ccc(-c6cc7ccc(O)cc7oc6=O)cc5)nn4)c3C2=O)C(=O)N1 (centres unmarked) [MD2] | 31 ± 3% | n.s. | 288 ± 25 nM | 192 ± 17 nM |  |  |
| O=C1CCC(N2C(=O)c3cccc(NC(=O)CCCc4cn(CC(=O)Nc5ccc(-c6cc7ccc(O)cc7oc6=O)cc5)nn4)c3C2=O)C(=O)N1 (centres unmarked) [MD3] | 22 ± 9% | n.s. | 182 ± 16 nM | 121 ± 11 nM |  |  |
| O=C1CCC(N2C(=O)c3cccc(NC(=O)CCCCc4cn(CC(=O)Nc5ccc(-c6cc7ccc(O)cc7oc6=O)cc5)nn4)c3C2=O)C(=O)N1 (centres unmarked) [MD4] | 50 ± 3% | n.s. | 233 ± 26 nM | 155 ± 17 nM |  |  |
| O=C1CCC(N2C(=O)c3cccc(NC(=O)CCCCc4cn(CCC(=O)Nc5ccc(-c6cc7ccc(O)cc7oc6=O)cc5)nn4)c3C2=O)C(=O)N1 (centres unmarked) [MD5] | 58 ± 8% | n.s. | 895 ± 82 nM | 597 ± 55 nM |  |  |
| O=C1CCC(N2C(=O)c3cccc(NC(=O)Cc4ccc(-n5cc(CCCC(=O)Nc6ccc(-c7cc8ccc(O)cc8oc7=O)cc6)nn5)cc4)c3C2=O)C(=O)N1 (centres unmarked) [MD6] |  | n.s. | 1500 ± 130 nM | 999 ± 87 nM | n.s. and did not trigger MIF reduction |  |
| O=C1CCC(N2C(=O)c3cccc(NCCCCC(=O)Nc4ccc(N5Cc6ccc(O)cc6OC5=O)cc4)c3C2=O)C(=O)N1 (centres unmarked) [MD7] |  | n.s. | 82 ± 4 nM | 55 ± 3 nM |  | 61 ± 7% |
| O=C(CCCCNc1cccc2c1C(=O)N(C1CCC(=O)NC1=O)C2=O)NCc1ccc(N2Cc3ccc(O)cc3OC2=O)cc1 (centres unmarked) [MD8] |  | 21±7% | 129 ± 8 nM | 86 ± 5 nM |  | 51 ± 4% |
| O=C1CCC(N2C(=O)c3cccc(NCc4cn(CCC(=O)Nc5ccc(N6Cc7ccc(O)cc7OC6=O)cc5)nn4)c3C2=O)C(=O)N1 (centres unmarked) [MD10] |  | 55±9% | 147 ± 13 nM | 98 ± 9 nM |  |  |
| O=C1CCC(N2C(=O)c3cccc(NC(=O)CCCc4cn(CCC(=O)Nc5ccc(N6Cc7ccc(O)cc7OC6=O)cc5)nn4)c3C2=O)C(=O)N1 (centres unmarked) [MD11] |  | n.s. | 143 ± 11 nM | 95 ± 7 nM | 40±8% |  |
| O=C(Cc1ccc(N2Cc3ccc(O)cc3OC2=O)cc1)NCc1cn(-c2ccc(CC(=O)Nc3cccc4c3C(=O)N(C3CCC(=O)NC3=O)C4=O)cc2)nn1 (centres unmarked) [MD12] | 38 ± 6% | n.s. | 138 ± 6 nM | 92 ± 4 nM |  |  |
| COc1ccc(-c2cc3ccc(O)cc3oc2=O)cc1 [compound 2, reference compound] |  |  |  | 370 ± 30 nM |  |  |
